Test results reported in patent publication US8067598B2, “Heterofused piperidines as orexin antagonists” (Hoffman-La Roche Inc., priority 2007, dated 2011).
No end group written: not given here.

Columns and labels:
[1] = target: T1, human orexin-1 (hOX1) receptors (Homo sapiens, UniProt O43613); test: Intracellular Ca2+ mobilization assay (FLIPR), CHO(dHFr-) cells expressing hOX1; format: cell-based; conditions: antagonism of orexin-A at EC80; Kb=IC50/(1+[A]/EC50); CHO(dHFr-)-OX1R cells
T1 construct: expressed in transfected cells
T1 sequence (O43613 1-425): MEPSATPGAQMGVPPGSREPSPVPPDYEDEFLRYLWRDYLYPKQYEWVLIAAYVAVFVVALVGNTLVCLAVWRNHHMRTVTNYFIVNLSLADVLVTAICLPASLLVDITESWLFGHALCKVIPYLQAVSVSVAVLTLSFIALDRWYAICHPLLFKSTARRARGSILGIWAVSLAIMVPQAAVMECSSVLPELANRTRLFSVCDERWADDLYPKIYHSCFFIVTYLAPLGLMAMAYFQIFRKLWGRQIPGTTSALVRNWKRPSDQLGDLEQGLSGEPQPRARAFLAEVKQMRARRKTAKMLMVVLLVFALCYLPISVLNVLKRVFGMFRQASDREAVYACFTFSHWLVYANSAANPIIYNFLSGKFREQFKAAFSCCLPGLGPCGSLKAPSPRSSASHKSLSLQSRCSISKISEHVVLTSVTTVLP
Procedure: (§1) Intracellular Ca^2+ Mobilization Assay
(§2) The Chinese Hamster Ovary (dHFr-) mutant cell line stably expressing human orexin-1 (hOX1) or human orexin-2 (hOX2) receptors were maintained in Dulbecco's Modified Eagle Medium (1X) with GlutaMax™ 1, 4500 mg/L D-Glucose and Sodium Pyruvate (Catalog No. 31966-021, Invitrogen, Carlsbad, Calif.), 5% dialyzed fetal calf serum (Catalog No. 26400-044), 100 μg/ml penicillin and 100 μg/ml streptomycin. The cells were seeded at 5×10^4 cells/well in the poly-D-lysine treated, 96-well, black/clear-bottomed plates (Catalog No. BD356640, BD Biosciences, Palo Alto, Calif.). 24 h later, the cells were loaded for 1 h at 37° C. with 4 μM Flou-4 acetoxymethyl ester (Catalog No. F-14202, Molecular Probes, Eugene, Oreg.) in FLIPR buffer (1×HBSS, 20 mM HEPES, 2.5 mM Probenecid). Hanks' Balanced Salt Solution (HBSS) (10X) (catalog No. 14065-049) and HEPES (1M) (catalog No. 15630-056) were purchased from Invitrogen, Carlsbad, Calif. Probenecid (250 mM) (catalog No. P8761) was from Sigma, Buchs, Switzerland. The cells were washed five times with FLIPR buffer to remove excess dye and intracellular calcium mobilization, [Ca^2+]i were measured using a Fluorometric Imaging Plate Reader (FLIPR-96, Molecular Devices, Menlo Park, Calif.) as described previously (Malherbe et al., Mol. Pharmacol., 64, 823-832, 2003). Orexin A (catalog No. 1455, Toris Cookson Ltd, Bristol, UK) was used as agonist. Orexin A ([…] stock solution in DMSO) was diluted in FLIPR buffer+0.1% BSA. The EC50 and EC80 values of orexin-A were measured daily from standard agonist concentration-response curves in CHO(dHFr-)-OX1R and -OX2R cell lines. All compounds were dissolved in 100% DMSO. Inhibition curves were determined by addition of 11 concentrations (0.0001-10 μM) of inhibitory compounds and using EC80 value of orexin-A as agonist (a concentration which gave 80% of max agonist response, determined daily). The antagonists were applied 25 min (incubation at 37° C.) before the application of the agonist. Responses were measured as peak increase in fluorescence minus basal, normalized to the maximal stimulatory effect induced by EC80 value of orexin-A or orexin-B. Inhibition curves were fitted according to the Hill equation: y=100/(1+(x/IC50)^nH), where nH=slope factor using Excel-fit 4 software (Microsoft).
(§3) Kb values were calculated according to the following equation Kb=IC50/(1+[A]/EC50) where A is the concentration of agonist added which is very close to agonist EC80 value, and IC50 and EC50 values were derived from the antagonist inhibition and orexin-A or B agonist curves, respectively.

[2] = target: T2, human orexin-2 (hOX2) receptors (Homo sapiens, UniProt O43614); test: Intracellular Ca2+ mobilization assay (FLIPR), CHO(dHFr-) cells expressing hOX2; format: cell-based; conditions: antagonism of orexin-A at EC80; Kb=IC50/(1+[A]/EC50); CHO(dHFr-)-OX2R cells
T2 construct: expressed in transfected cells
T2 sequence (O43614 1-444): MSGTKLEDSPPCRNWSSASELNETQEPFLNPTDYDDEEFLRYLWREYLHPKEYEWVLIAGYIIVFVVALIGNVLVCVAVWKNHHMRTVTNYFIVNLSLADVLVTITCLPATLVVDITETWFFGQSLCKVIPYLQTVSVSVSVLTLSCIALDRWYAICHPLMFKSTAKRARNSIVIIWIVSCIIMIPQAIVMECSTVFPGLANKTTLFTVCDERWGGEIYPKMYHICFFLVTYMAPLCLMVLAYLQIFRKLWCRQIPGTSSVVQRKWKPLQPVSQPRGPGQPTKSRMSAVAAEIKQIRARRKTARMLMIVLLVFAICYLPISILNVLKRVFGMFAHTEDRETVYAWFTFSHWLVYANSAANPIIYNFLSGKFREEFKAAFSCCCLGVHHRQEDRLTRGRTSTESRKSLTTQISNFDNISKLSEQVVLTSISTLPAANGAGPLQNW
Procedure: as §1, §2, §3

[3] = test system: rat; conditions: icv administration (Piper et al., 2000); cited from earlier work

Compound	Kb [1] [µM]	Kb [2] [µM]	reduction of total REM sleep [3] [%]
CNC(=O)C(c1ccccc1)N1CCc2sc(C)cc2C1CCc1ccc(C(F)(F)F)cc1 (single isomer, unassigned) [Example 4, N-Methyl-2-{2-methyl-4-[2-(4-trifluoromethyl-phenyl)-ethyl]-6,7-dihydro-4H-thieno[3,2-c]pyridin-5-yl}-2-phenyl-acetamide]	0.047	0.0204	
CNC(=O)C(c1ccccc1)N1CCc2sc(C)cc2C1CCc1ccc(C(F)(F)F)cc1 (single isomer, unassigned) [Example 6, N-Methyl-2-{2-methyl-4-[2-(4-trifluoromethyl-phenyl)-ethyl]-6,7-dihydro-4H-thieno[3,2-c]pyridin-5-yl}-2-phenyl-acetamide]	0.0401	0.0091	
CNC(=O)C(c1ccccc1)N1CCc2sc(C)cc2C1CCc1ccc(OC)cc1 (single isomer, unassigned) [Example 7, 2-{4-[2-(4-Methoxy-phenyl)-ethyl]-2-methyl-6,7-dihydro-4H-thieno[3,2-c]pyridin-5-yl}-N-methyl-2-phenyl-acetamide]	0.0311	0.0266	
CNC(=O)C(c1ccccc1)N1CCc2sc(C)cc2C1CCc1ccc(OC)cc1 (single isomer, unassigned) [Example 8, 2-{4-[2-(4-Methoxy-phenyl)-ethyl]-2-methyl-6,7-dihydro-4H-thieno[3,2-c]pyridin-5-yl}-N-methyl-2-phenyl-acetamide]	0.0135	0.0075	
CNC(=O)C(c1ccccc1)N1CCc2sc(C)cc2C1CCc1ccc(OC)cc1 (single isomer, unassigned) [Example 9, 2-{4-[2-(4-Methoxy-phenyl)-ethyl]-2-methyl-6,7-dihydro-4H-thieno[3,2-c]pyridin-5-yl}-N-methyl-2-phenyl-acetamide]	0.408	0.0566	
CNC(=O)C(c1ccccc1)N1CCc2ncccc2C1CCc1ccc(OC)cc1 (single isomer, unassigned) [Example 11, 2-{5-[2-(4-Methoxy-phenyl)-ethyl]-7,8-dihydro-5H-[1,6]naphthyridin-6-yl}-N-methyl-2-phenyl-acetamide]	0.164	0.0215	
CNC(=O)C(c1ccccc1)N1CCc2sc(C)c(C)c2C1CCc1ccc(OC)cc1 (single isomer, unassigned) [Example 13, 2-{4-[2-(4-Methoxy-phenyl)-ethyl]-2,3-dimethyl-6,7-dihydro-4H-thieno[3,2-c]pyridin-5-yl}-N-methyl-2-phenyl-acetamide]	0.0402	0.005	
CNC(=O)C(c1ccccc1)N1CCc2sc(C)c(C)c2C1CCc1ccc(OC)cc1 (single isomer, unassigned) [Example 14, 2-{4-[2-(4-Methoxy-phenyl)-ethyl]-2,3-dimethyl-6,7-dihydro-4H-thieno[3,2-c]pyridin-5-yl}-N-methyl-2-phenyl-acetamide]	0.0221	0.0036	
CNC(=O)C(c1ccccc1)N1CCc2sc(C)c(C)c2C1CCc1ccc(OC)cc1 (single isomer, unassigned) [Example 15, 2-{4-[2-(4-Methoxy-phenyl)-ethyl]-2,3-dimethyl-6,7-dihydro-4H-thieno[3,2-c]pyridin-5-yl}-N-methyl-2-phenyl-acetamide]	0.408	0.0169	
OX-A: orexin-A/hypocretin1 hypothalamic neuropeptide, 33 amino acids; agonist of OX1R and OX2R (QPLPDCCRQKTCSCRLYELLHGAGNHAAGILTL; ends and bridges not checked; cysteine pairing not given here; UniProt O43612 34-66, looked up)			84

More lines, main results first:

Kb [1] [µM]	Kb [2] [µM]	Compound	reduction of total REM sleep [3] [%]
0.0524	0.0148	CNC(=O)C(c1ccccc1)N1CCc2ccsc2C1CCc1ccc(C(F)(F)F)cc1 (single isomer, unassigned) [Example 16, N-Methyl-2-phenyl-2-{7-[2-(4-trifluoromethyl-phenyl)-ethyl]-4,7-dihydro-5H-thieno[2,3-c]pyridin-6-yl}-acetamide]	
0.0162	0.0462	CNC(=O)C(c1ccccc1)N1CCc2sc(Cl)cc2C1CCc1ccc(OC)cc1 (single isomer, unassigned) [Example 17, 2-{2-Chloro-4-[2-(4-methoxy-phenyl)-ethyl]-6,7-dihydro-4H-thieno[3,2-c]pyridin-5-yl}-N-methyl-2-phenyl-acetamide]	
0.0095	0.032	CNC(=O)C(c1ccccc1)N1CCc2sc(Cl)cc2C1CCc1ccc(OC)cc1 (single isomer, unassigned) [Example 18, 2-{2-Chloro-4-[2-(4-methoxy-phenyl)-ethyl]-6,7-dihydro-4H-thieno[3,2-c]pyridin-5-yl}-N-methyl-2-phenyl-acetamide]	
0.105	0.038	CNC(=O)C(c1ccccc1)N1CCc2ncccc2C1CCc1ccc(OC)cc1 (single isomer, unassigned) [Example 22, 2-{5-[2-(4-Methoxy-phenyl)-ethyl]-7,8-dihydro-5H-[1,6]naphthyridin-6-yl}-N-methyl-2-phenyl-acetamide]	
0.223	0.0852	CNC(=O)C(c1ccccc1)N1CCc2ncccc2C1CCc1cccc(OC)c1 (single isomer, unassigned) [Example 23, 2-{5-[2-(3-Methoxy-phenyl)-ethyl]-7,8-dihydro-5H-[1,6]naphthyridin-6-yl}-N-methyl-2-phenyl-acetamide]	
0.108	0.0296	CNC(=O)C(c1ccccc1)N1CCc2ncccc2C1CCc1cccc(OC)c1 (single isomer, unassigned) [Example 25, 2-{5-[2-(3-Methoxy-phenyl)-ethyl]-7,8-dihydro-5H-[1,6]naphthyridin-6-yl}-N-methyl-2-phenyl-acetamide]	
0.348	0.0356	CNC(=O)C(c1ccccc1)N1CCc2ncccc2C1CCc1ccc(C(F)(F)F)cc1 (single isomer, unassigned) [Example 26, N-Methyl-2-phenyl-2-{5-[2-(4-trifluoromethyl-phenyl)-ethyl]-7,8-dihydro-5H -[1,6]naphthyridin-6-yl}-acetamide]	
0.301	0.0601	CNC(=O)C(c1ccccc1)N1CCc2ncccc2C1CCc1ccc(F)cc1 (single isomer, unassigned) [Example 28, 2-{5-[2-(4-Fluoro-phenyl)-ethyl]-7,8-dihydro-5H-[1,6]naphthyridin-6-yl}-N-methyl-2-phenyl-acetamide]	
